Source: patent US20170258747A1, “GLUTAMINE ENRICHED NUTRITIONAL COMPOSITION FOR PRETERM INFANTS” (N.V. Nutricia, priority 2012, published 2017)

Tests used:
[1] = system: very preterm and/or VLBW children; assay: Brain subcortical volumes by MRI at school age after enteral glutamine supplementation, days 3-30 of life; type: in vivo, human
Method: (§1) A randomized, placebo controlled clinical trial was performed. For a detailed protocol of the study, see van den Berg et al, 2004, Glutamine-enriched enteral nutrition in very low birth weight infants. Design of a double-blind randomised controlled trial [ISRCTN73254583], BMC Pediatrics 4:17.
(§2) In short: Infants with a gestational age <32 weeks and/or birth weight <1500 g were enrolled. In total 52 very preterm and/or VLBW children, which had taken part in a randomized controlled trial on enteral glutamine supplementation between day 3 and 30 of life, participated in this follow up study at the mean age of 8.6 years (SD=0.3 years). 30 infants were in the control group and 22 in the glutamine supplementation group. Also comparisons were made with a control group (n=52) of term born infants.
(§3) The glutamine nutritional supplement was in powder form and contained 82 wt. % L-glutamine in total and 18 wt. % glucose (nitrogen 15.5 wt/wt %; 371 kcal/100 g), whereas the isonitrogenous control powder contained 100 wt. % L-alanine (nitrogen 15.7 wt/wt %, 435 kcal/100 g). The two powders were indistinguishable by appearance, colour and smell. Between days 3 and 30 of life, supplementation was administered in increasing doses to a maximum of 0.3 g/kg glutamine per day in the glutamine group. Initially, the supplementation dose was based on birth weight. After 2 weeks the dose was adjusted to actual body weight. Two members of the nursing staff daily added supplementation to breast milk or to preterm formula (Nenatal®, Nutricia Nederland B.V., Zoetermeer, The Netherlands), according to the parents' choice. Per 100 ml, Nenatal® provides 78 kcal, 2.1 g protein (casein-whey protein weight ratio 40:60), 4.4 g fat and 7.5 g carbohydrate. […] Protocol guidelines for the introduction of parenteral and enteral nutrition are disclosed in van den Berg et al., 2004.
(§4) All statistical analyses are performed on an intention to treat basis. In addition, alternative per protocol analyses are performed, excluding all patients who are not treated according to protocol, defined as more than 3 consecutive days or more than a total of 5 days on minimal enteral feeding or without supplementation. A p value<0.05 is considered significant (two-tailed). SPSS 9.0 (SPSS Inc., Chicago, Ill., USA) and STAT 7.0 (Stat-Corp LP, College Station, Tex., USA) are used for data analysis. A p value of 0.1 or below is considered to represent a realistic effect, a trend. Due to the small size of the groups also the effect size is taken into account. An effect size above 0.4 is considered to represent a trend.
Brain subcortical volumes were determined by Mill and calculated using FSL software “FAST” and corrected for age at Mill scan, gender and body weight for gestational age. […] This was the case for the brain stem, thalamus, putamen, caudate nucleus, hippocampus, globus pallidum, amygdale, nucleus accumbens and the corpus callosum volume.

[2] = system: VLBL infants; details: supplementation with glutamine in VLBL infants; cited from earlier work
[3] = system: VLBW infants; details: at age of 2 years; cited from earlier work
[4] = system: VLBW infants; details: in the first year of life and at the age of 6; cited from earlier work
[5] = system: glutamine fed preterm group; assay: fMRI neuronal activation later in life; type: in vivo, human
From the text: The improved brain development established at school age is indicative for improvement in neurocognitive functioning, behavioral and/or motional development, improving neuronal activation during interference task or during visuo-spatial working memory task, improvement of visuomotor skills (caterpillar-task).

[6] = system: very preterm and/or VLBW children; assay: Intellectual development, short form of WISC-III; type: in vivo, human; details: mean, sd 17.7, n=30; scores normalised with a mean of 100 (SD 15); p=0.12 versus control
Method: Intellectual development was measured in the same group of infants as example 1 by a short form of the Wechsler Intelligence Scale for Children-III (WISC-III), including the subtests Vocabulary and Block Design. […]. Both subtests correlate strongly (r 0.90) with full-scale intelligence quotient (FSIQ). Scores on this test were normalised with a mean of 100 (SD 15). There was a trend (p=0.12 when adjusted for gestational age and socioeconomic status) in improved IQ (WISC-III FSIQ being 102, sd 17.7, n=30) in the glutamine group compared to the control group (WISC-III FSIQ 93.6 sd 17.2 n=34).

[7] = system: very preterm and/or VLBW children; assay: Brain cortical volumes by MRI at school age after enteral glutamine supplementation, days 3-30 of life; type: in vivo, human
Method: as §1, §2, §3, §4
Brain cortical volumes were determined by MRI and calculated using FSL software “FAST” and corrected for age at MM scan, gender and body weight for gestational age. […] This was the case for intracranial volume, grey matter, white matter and cerebellum volume.

[8] = glutamine supplemented versus control preterm group
[9] = mean, MRI at mean age 8.6 years
[10] = mean, MRI at mean age 8.6 years, max 0.3 g/kg glutamine per day, days 3-30 of life

NC(=O)CC[C@H](N)C(=O)O [Glutamine, L-glutamine]
Effect size, amygdala ([1]; control versus glutamine group): 0.46 | Effect size, brain stem ([1]; control versus glutamine group): 0.54 | Effect size, caudate nucleus ([1]; control versus glutamine group): 0.10 | Effect size, corpus callosum ([1]; control versus glutamine group): 0.18 | Effect size, globus pallidum ([1]; control versus glutamine group): 0.48 | Effect size, hippocampus ([1]; control versus glutamine group): 0.47 | Effect size, nucleus accumbens ([1]; control versus glutamine group): 0.04 | Effect size, putamen ([1]; control versus glutamine group): 0.55 | Effect size, subcortical structures ([1]; control versus glutamine group): 0.50 | Effect size, thalamus ([1]; control versus glutamine group): 0.39 | Brain stem volume compared with preterm control group [1, 8]: significantly higher | Hippocampus volume compared with preterm control group [1, 8]: significantly higher | Subcortical volume compared with preterm control group [1, 8]: higher | Amygdala volume [1, 9]: 2.3 cm^3 | Brain stem volume [1, 9]: 18.9 cm^3 | Caudate Nucleus volume [1, 9]: 7.4 cm^3 | Corpus callosum [1, 9]: 535.7 mm^2 | Globus Pallidum volume [1, 9]: 3.5 cm^3 | Hippocampus volume [1, 9]: 7.2 cm^3 | Nucleus accumbens volume [1, 9]: 1.0 cm^3 | Putamen volume [1, 9]: 10.9 cm^3 | Subcortical structures volume [1, 9]: 66.5 cm^3 | Thalamus volume [1, 9]: 15.3 cm^3 | Infectious morbidity [2]: lowers | Neurodevelopment outcome [3]: no effect | Risk for atopic dermatitis [4]: decreases | Neuronal activation (fMRI) [5]: more similar to term infants | WISC-III FSIQ [6]: 102 | Effect size, cerebellum ([7]; control versus glutamine group): 0.41 | Effect size, grey matter ([7]; control versus glutamine group): 0.29 | Effect size, intracranial volume ([7]; control versus glutamine group): 0.48 | Effect size, white matter ([7]; control versus glutamine group): 0.54 | Cerebellum volume compared with preterm control group [7, 8]: tendency for an increase | Cortical brain volumes compared with preterm control group [7, 8]: higher than in the control group | Intracranial volume compared with preterm control group [7, 8]: tendency for an increase | White matter volume compared with preterm control group [7, 8]: significantly higher | Cerebellum volume [7, 10]: 110.89 cm^3 | Grey matter volume [7, 10]: 727.4 cm^3 | Intracranial volume [7, 10]: 1649.8 cm^3 | White matter volume [7, 10]: 496.5 cm^3
